The source of these data is the Biogen ADME set (Fang et al. 2023).

Values after ≈ are worked out from the molar mass of the structure shown.

The conditions of the data set: for aqueous solubility: pH 6.8.

As a reminder, the aqueous solubility is the dissolved amount per volume that the medium holds. A high value points to much dissolved substance. `CC1(c2nnc(-c3ccc4c(c3)OCCO4)o2)CCOCC1`: the MDR1-MDCK efflux ratio amounted to 0.742; the intrinsic clearance, human liver microsomes stood at 13.3 mL/min/kg; the intrinsic clearance, rat liver microsomes was found to be 247 mL/min/kg; the aqueous solubility was found to be 40.8 µg/mL (≈ 135 µM).

Compound `O=C(O)c1cnn(-c2ccncc2)c1C(F)F` showed an intrinsic clearance, human liver microsomes not above 4.74 mL/min/kg; an intrinsic clearance, rat liver microsomes not above 10.7 mL/min/kg; an aqueous solubility of 31.9 µg/mL (≈ 133 µM).

In turn, `COCc1ccc(-c2nc3c([nH]2)c(C)nn3C2CCCCC2)o1` registered an intrinsic clearance, human liver microsomes of 51.8 mL/min/kg; an intrinsic clearance, rat liver microsomes of 485 mL/min/kg; an aqueous solubility of 38 µg/mL (≈ 121 µM).

Turning to `Cc1cc(C(=O)Nc2ncccc2C)c2ccccc2n1`, the intrinsic clearance, human liver microsomes was 13.7 mL/min/kg; the intrinsic clearance, rat liver microsomes was determined as 58.3 mL/min/kg; the aqueous solubility was determined as 44 µg/mL (≈ 159 µM).

With `Fc1ccc(CNc2nnc(-c3ccc4c(c3)OCO4)o2)cc1`, the MDR1-MDCK efflux ratio is 0.313; the intrinsic clearance, human liver microsomes turned out to be 95.2 mL/min/kg; the intrinsic clearance, rat liver microsomes was found to be 4490 mL/min/kg; the aqueous solubility came out at 2.57 µg/mL (≈ 8.2 µM).

Regarding `CCCc1cc(N2CCc3c(nc(C4CC4)n3C)C2)n2ncnc2n1`, the MDR1-MDCK efflux ratio turned out to be 38.3; the fraction unbound, human plasma was determined as 0.476; the fraction unbound, rat plasma amounted to 0.244; the intrinsic clearance, human liver microsomes came to 9.63 mL/min/kg. Also, the intrinsic clearance, rat liver microsomes is 179 mL/min/kg and the aqueous solubility stood at 53.3 µg/mL (≈ 158 µM).

Turning to `O=C(c1cccnc1)N1CCCC(c2cccc(-c3cccc(Cl)c3)n2)C1` (configuration not stated), the MDR1-MDCK efflux ratio was 0.905; the intrinsic clearance, human liver microsomes is 397 mL/min/kg; the intrinsic clearance, rat liver microsomes came to 1270 mL/min/kg; the aqueous solubility is 36 µg/mL (≈ 95.1 µM).

Take `COCCNc1cc(NC(=O)N2CCCc3cc(CN4CCN(C)CC4=O)c(C=O)nc32)ncc1C#N`: the MDR1-MDCK efflux ratio was 46; the intrinsic clearance, human liver microsomes stood at 14.4 mL/min/kg; the intrinsic clearance, rat liver microsomes amounted to 24 mL/min/kg; the aqueous solubility was determined as 20 µg/mL (≈ 39.5 µM).

As for `COc1ccc(-c2ccc(Cn3nc(C)cc3C)cn2)cc1`, the MDR1-MDCK efflux ratio was found to be 0.479; the intrinsic clearance, human liver microsomes was determined as 23.7 mL/min/kg; the intrinsic clearance, rat liver microsomes came to 255 mL/min/kg.

On to `CCCCOc1ccccc1-c1cc(C(=O)NCc2ccccc2C)[nH]n1`, for which the MDR1-MDCK efflux ratio came out at 0.682 and the aqueous solubility came to 0.26 µg/mL (≈ 0.715 µM).

Take `Cc1nc(-c2ccccc2)c(C(=O)Nc2ccccc2)s1`: the MDR1-MDCK efflux ratio is 0.571 and the aqueous solubility was found to be 0.9 µg/mL (≈ 3.06 µM).

With `COCCc1nc(-c2ccccc2-c2ccccc2)n(CCO)n1`, the MDR1-MDCK efflux ratio is 15.9; the intrinsic clearance, human liver microsomes is 24.5 mL/min/kg; the intrinsic clearance, rat liver microsomes came out at 182 mL/min/kg; the aqueous solubility is 26.4 µg/mL (≈ 81.6 µM).
